According to US20260007601A1, “IONIZABLE CATIONIC LIPID COMPOUND AND COMPOSITION FOR DELIVERING NUCLEIC ACID AND USE THEREOF” (BEIJING YOUCAREKECHUANG PHARMACEUTICAL TECHNOLOGY CO., LTD., priority 2023, published 2026):

Key:
[1] = system: 293T cells; test: Cell survival rate assay (CCK-8); format: cell-based; details: LNP containing 1.5 μg Fluc-mRNA, 24 hours, CCK-8
Method: (§1) Cell recovery and passaging: 293T cells were recovered and cultured in culture dishes to the required cell number.
(§2) Plating: The cells in the culture dish were digested, counted, plated in a 96-well plate at 10,000 cells per well, or in a 12-well plate at 150,000 cells per well, and cultured overnight until the cells adhered to the wall.
(§3) Cell recovery and passage: The method was the same as in Example 3.
(§4) Plating: The method was the same as Example 3.
The LNP formulations containing 1.5 μg Fluc-mRNA (prepared according to Example 4, the LNP formulation carrier components are cationic lipids, neutral lipids, structured lipids and polymer-conjugated lipids at a molar ratio of 49:10:39.5:1.5, wherein the cationic lipids are the cationic lipids listed in Table 1) and the Lipofectamine 3000 formulation were added to the cell culture medium of the 96-well plate, and the culture was continued for 24 hours. Then, 10 μL of CCK-8 solution was added to each well, and the culture plate was incubated in the incubator for 1 hour, and the absorbance at 450 nm was measured by a microplate reader.

[2] = system: 293T cells; test: Fluorescence detection of Fluc-mRNA (cell transfection efficiency of LNP formulations); format: cell-based; details: for Relative light unit (RLU): LNP containing 0.3 μg Fluc-mRNA, 24 hours; for Multiples of values that equivalent to YK-201: RLU of YK-201 / RLU of the named lipid; for Multiples of values that equivalent to YK-202: RLU of YK-202 / RLU of the named lipid; for Multiples of values that equivalent to YK-209: RLU of YK-209 / RLU of the named lipid; for Ratio relative to SM-102: RLU of the named lipid / RLU of SM-102, times that of SM-102
Method: as §1, §2, §3, §4
The LNP formulation containing 0.3 μg Fluc-mRNA (prepared according to Example 4, the LNP formulation carrier components were cationic lipids, neutral lipids, structured lipids and polymer-conjugated lipids at a molar ratio of 49:10:39.5:1.5, and the cationic lipids were cationic lipids listed in Table 1) was added to the cell culture medium of a 96-well plate, and cultured for 24 hours. After that, the corresponding reagents were added according to the instructions of the Gaussia Luciferase Assay Kit, and the fluorescence expression intensity of each well was detected by the IVIS fluorescence detection system. This experiment verified the transfection efficiency of the LNP formulation in the cell, and the specific detection results are shown in Tables 6-9.

[3] = Particle size and polydispersity index (PDI) of nanolipid particles, dynamic light scattering; format: physicochemical; details: LNP formulation prepared from the named cationic lipid, 25° C
Method: The particle size and polydispersity index (PDI) were determined by dynamic light scattering method using a Malvern laser particle size analyzer. 10 μL of liposome solution was diluted to 1 mL with RNase-free deionized water and added to a sample pool. Each sample was measured three times. The measurement conditions were: 90° scattering angle, 25° C.

[4] = Encapsulation rate, drug loading concentration and total RNA concentration detection (RiboGreen); format: physicochemical; details: LNP formulation of the named lipid
Text: Encapsulation rate is a key quality attribute of liposomes. It refers to the percentage of drug content encapsulated in the lipid bilayer to the total amount of drug added, which can reflect the degree of drug encapsulation in liposomes. The Chinese Pharmacopoeia stipulates that the encapsulation rate should usually not be less than 80%.
The drug loading capacity is the ratio of the amount of drug in the liposome to the total amount of drug and carrier in the liposome. The drug loading capacity directly affects the clinical application dose of the drug, so the larger the drug loading capacity, the more it can meet clinical needs. The drug loading concentration is proportional to the drug loading capacity, and the relative proportion of the drug loading concentration can represent the relative proportion of the drug loading capacity. The relative proportion of the total RNA concentration can represent the relative proportion of the amount of mRNA carried by the LNP formulation.
1×TE buffer, 0.1% Triton X-100 buffer, and RiboGreen reagent (1:200) and mRNA standard stock solution were prepared.
An appropriate amount of sample was taken and added to an appropriate amount of 1×TE buffer, which was diluted to a solution containing about 2.8 μg of the test sample per 1 mL. Then the sample was added to a 96-well plate, where 50 μL of the diluted test sample or mRNA standard stock solution was added to each well, and then added with 1×TE buffer and 0.1% Triton X-100 buffer. The samples were incubated at 37° C. for 10 minutes, and 100 μL of RiboGreen reagent (1:200) was added to each well of the 96-well plate. The plate was centrifuged, and read using an ELISA reader, and the data was processed.

PDI [3] | Particle size [3] | Drug loading concentration [4] | Encapsulation rate [4] | Total RNA concentration [4] | Structure (SMILES) | Cell survival rate [1] | Relative light unit (RLU) [2] | Multiples of values that equivalent to YK-201 [2] | Multiples of values that equivalent to YK-202 [2] | Multiples of values that equivalent to YK-209 [2] | Ratio relative to SM-102 [2]
17.2% | 222 nm | 36.50 µg/mL | 78.2% | 46.66 µg/mL | CCCCCCCCCCOC(=O)CCCN(CCCCCC(=O)OCC(CCCCCCCC)CCCCCCCC)CCOC(=O)SCCCN(C)C [YK-218, 2-octyldecyl-11-(4-(decyloxy)-4-oxobutyl)-2-methyl-7-oxo-8-oxo-6-thio-2,11-diazaheptane-17-carboxylate] | 72.84% | 607080 RLU | 46.92 | 49.35 | 34.69 | 0.36
26.6% | 221 nm | 25.27 µg/mL | 57.5% | 43.92 µg/mL | CCCCCCCCCCOC(=O)CCCN(CCCCCC(=O)OCCC(CCCCCC)CCCCCC)C(=O)SCCCN(C)C [YK-220] | 58.99% | 216398 RLU | 131.62 | 138.44 | 97.32 | 0.13
17.6% | 207 nm | 34.70 µg/mL | 82.0% | 42.34 µg/mL | CCCCCCCCC(CCCCCCCC)OC(=O)CCCCCN(CCCCCC(=O)OC(CCCCCCCC)CCCCCCCC)CCN(CCO)CCO [YK-213, bis(heptadecan-9-yl)-6,6-((2-(bis(2-hydroxyethyl)amino)ethyl)azadialkyl)dihexanoate] | 41.44% | 1364505 RLU | 20.87 | 21.95 | 15.43 | 0.82
19.3% | 222 nm | 38.74 µg/mL | 98.0% | 39.53 µg/mL | CCCCCCC(CCCCCC)CCOC(=O)CCCCCN(CCCCCC(=O)OCCC(CCCCCC)CCCCCC)CCN(C)CCNC [YK-225] | 43.41% | 26145 RLU | 1089.41 | 1145.82 | 805.46 | 0.02
21.9% | 237 nm | 31.46 µg/mL | 95.4% | 32.98 µg/mL | CCCCCCCCCCOC(=O)CCCN(CCCCCC(=O)OCC(CCCCCCCC)CCCCCCCC)CCN(C)CCNC [YK-221] | 20.95% | 27960 RLU | 1018.69 | 1071.44 | 753.17 | 0.02
20.7% | 222 nm | 42.91 µg/mL | 97.7% | 43.92 µg/mL | CCCCCCC(CCCCCC)CCOC(=O)CCCCCN(CCCCCC(=O)OCCC(CCCCCC)CCCCCC)CCN(C)CCO [YK-211, bis(3-hexylnonyl)-6,6-((2-(2-hydroxyethyl(methyl)amino)ethyl)azadialkyl)dihexanoate] | 52.30% | 1370100 RLU | 20.79 | 21.87 | 15.37 | 0.82
23.7% | 235 nm | 38.38 µg/mL | 91.0% | 42.19 µg/mL | CCCCCCCCCCCOC(=O)CCCCCN(CCCCCCCC(=O)OCCC(CCCCCC)CCCCCC)CCN(C)CCO [YK-203] | 35.56% | 3869614 RLU | 7.36 | 7.74 | 5.44 | 2.32
19.2% | 172 nm | 40.25 µg/mL | 94.4% | 42.62 µg/mL | CCCCCCCCC(CCCCCCCC)COC(=O)CCCCCN(CCCCCC(=O)OCC(CCCCCCCC)CCCCCCCC)CCN(CCO)CCO [YK-212, bis(2-octyldecyl)-6,6-((2-(bis(2-hydroxyethyl)amino)ethyl)azadialkyl)dihexanoate] | 35.26% | 3910590 RLU | 7.28 | 7.66 | 5.39 | 2.35
31.5% | 203 nm | 38.16 µg/mL | 96.7% | 39.46 µg/mL | CCCCCCC(CCCCCC)CCOC(=O)CCCCCN(CCCCCC(=O)OCCC(CCCCCC)CCCCCC)CCN(CCO)CCO [YK-214, bis(3-hexylnonyl)-6,6-((2-(bis(2-hydroxyethyl)amino)ethyl)azadialkyl)dihexanoate] | 25.58% | 4582178 RLU | 6.22 | 6.54 | 4.60 | 2.75
22.9% | 224 nm | 36.50 µg/mL | 85.6% | 42.62 µg/mL | CCCCCCCCC(CCCCCCCC)OC(=O)CCCCCN(CCCCCC(=O)OC(CCCCCCCC)CCCCCCCC)CCN(C)CCO [YK-210, bis(heptadecan-9-yl)-6,6′-((2-(2-hydroxyethyl(methyl)amino)ethyl)azadialkyl)dihexanoate] | 38.38% | 4628355 RLU | 6.15 | 6.47 | 4.55 | 2.78
13.7% | 219 nm | 27.36 µg/mL | 61.3% | 44.64 µg/mL | CCCCCCCCCCOC(=O)CCCN(CCCCCC(=O)OCC(CCCCCCCC)CCCCCCCC)CCN(C)CCOC [YK-216] | 45.80% | 2280300 RLU | 12.49 | 13.14 | 9.24 | 1.37
